Source: paper PMC12439480, “Dimeric CCK2R radiotheranostic tracers synergize with mTOR inhibition for enhanced tumor therapy” (Theranostics, 2025)
Numbered stars: 1 amine (or outer) side, 2 acyl side, 3 side chain; on linkers, the order of the positions; unused ones are H or OH. Square brackets hold non-standard residues; d marks the D form. Side chains are listed from the residue outwards. Peptide text beside a SMILES is read from it. * marks the point of attachment. DOTA = O=C(O)CN1CCN(CC(=O)O)CCN(CC(=O)*)CCN(CC(=O)O)CC1; d(γGlu) = O=C(O)[C@@H](CCC(=O)[*:2])N[*:1]; 1Nal = N[C@@H](Cc1cccc2ccccc12)C(=O)O; NMeNle = CCCC[C@H](NC)C(=O)O; PEG4 = NCCOCCOCCOCCOCCC(=O)O

Assay: in vivo
Design: species or system BALB/c nude mice
Conditions: mouse; for tissue to tissue ratio at 0.5 h / tissue to tissue ratio at 1 h / tissue to tissue ratio at 2 h: female, BALB/c nude, iv, 3.7 MBq, total radioactivity
Protocol: To complement the imaging studies, biodistribution experiments were performed. AR42J tumor-bearing mice were intravenously injected with 3.7 MBq of [^68Ga]Ga-DOTA-CCK2R-dimer (≈ 120 pmol) or [^68Ga]Ga-DOTA-CCK-66 (≈ 210 pmol) (dissolved in 200 μL of saline; n = 3/group). The mice were sacrificed at 30, 60, and 120 min post-injection, and the tissues of interest were excised, weighed, and analyzed for radioactivity using a γ-counter. For blocking studies, a 400-fold excess of the lead compound was co-administered, and the mice were sacrificed at 1 h post-injection.
All animal studies were approved by the Ethics Committee of Fudan University
Shanghai Cancer Center (No. FUSCC-IACUC- S2023- 0003). Five-week-old female
BALB/c nude mice were purchased from Shanghai SLAC Laboratory Animal
Company. To establish cell-derived xenograft (CDX) models, 1 × 10⁶ AR42J cells
(100 μL) were subcutaneously inoculated into the right shoulder of each mouse. […]

[1] = Tumor-to-Large intestine ratio (T/B)
[2] = Tumor-to-Small intestine ratio (T/B)

Structure (SMILES): CCCC[C@@H](C(=O)N[C@@H](CC(=O)O)C(=O)N[C@@H](Cc1cccc2ccccc12)C(N)=O)N(C)C(=O)[C@H](Cc1c[nH]c2ccccc12)NC(=O)CCOCCOCCOCCOCCNC(=O)CC[C@@H](NC(=O)CC[C@H](NC(=O)CN1CCN(CC(=O)O)CCN(CC(=O)O)CCN(CC(=O)O)CC1)C(=O)N[C@H](CCC(=O)NCCOCCOCCOCCOCCC(=O)N[C@@H](Cc1c[nH]c2ccccc12)C(=O)N(C)[C@@H](CCCC)C(=O)N[C@@H](CC(=O)O)C(=O)N[C@@H](Cc1cccc2ccccc12)C(N)=O)C(=O)O)C(=O)O [[68Ga]Ga-DOTA-CCK2R-dimer, metal not drawn] ({DOTA}-E([d(γGlu)-PEG4-Trp-NMeNle-Asp-1Nal-NH2])[d(γGlu)][PEG4]W[NMeNle]D[1Nal]-NH2)
- tissue to tissue ratio at 0.5 h (Tumor-to-Bladder ratio (T/B)): 7.42 ± 4.09
- tissue to tissue ratio at 1 h (Tumor-to-Bladder ratio (T/B)): 8.41 ± 1.6
- tissue to tissue ratio at 2 h (Tumor-to-Bladder ratio (T/B)): 40.8 ± 16.9
- tissue to tissue ratio at 0.5 h (Tumor-to-Blood ratio (T/B)): 3.01 ± 1.29
- tissue to tissue ratio at 1 h (Tumor-to-Blood ratio (T/B)): 6.8 ± 4.41
- tissue to tissue ratio at 2 h (Tumor-to-Blood ratio (T/B)): 21.6 ± 9.41
- tissue to tissue ratio at 0.5 h (Tumor-to-Bone ratio (T/B)): 19.2 ± 4.91
- tissue to tissue ratio at 1 h (Tumor-to-Bone ratio (T/B)): 18.8 ± 5.04
- tissue to tissue ratio at 2 h (Tumor-to-Bone ratio (T/B)): 142 ± 25
- tissue to tissue ratio at 0.5 h (Tumor-to-Brain ratio (T/B)): 39.7 ± 24.6
- tissue to tissue ratio at 1 h (Tumor-to-Brain ratio (T/B)): 61.8 ± 7.46
- tissue to tissue ratio at 2 h (Tumor-to-Brain ratio (T/B)): 154 ± 17.5
- tissue to tissue ratio at 0.5 h (Tumor-to-Heart ratio (T/B)): 5.23 ± 2.91
- tissue to tissue ratio at 1 h (Tumor-to-Heart ratio (T/B)): 8.18 ± 0.91
- tissue to tissue ratio at 2 h (Tumor-to-Heart ratio (T/B)): 18.5 ± 3.74
- tissue to tissue ratio at 0.5 h (Tumor-to-Kidney ratio (T/B)): 1.66 ± 1.37
- tissue to tissue ratio at 1 h (Tumor-to-Kidney ratio (T/B)): 1.15 ± 0.15
- tissue to tissue ratio at 2 h (Tumor-to-Kidney ratio (T/B)): 1.62 ± 0.29
- tissue to tissue ratio at 0.5 h [1]: 8.98 ± 3.85
- tissue to tissue ratio at 1 h [1]: 10.5 ± 1.55
- tissue to tissue ratio at 2 h [1]: 40.2 ± 29.4
- tissue to tissue ratio at 0.5 h (Tumor-to-Liver ratio (T/B)): 2.07 ± 1.51
- tissue to tissue ratio at 1 h (Tumor-to-Liver ratio (T/B)): 3.05 ± 0.56
- tissue to tissue ratio at 2 h (Tumor-to-Liver ratio (T/B)): 11.9 ± 4.6
- tissue to tissue ratio at 0.5 h (Tumor-to-Lung ratio (T/B)): 3.34 ± 2.07
- tissue to tissue ratio at 1 h (Tumor-to-Lung ratio (T/B)): 5.56 ± 2.82
- tissue to tissue ratio at 2 h (Tumor-to-Lung ratio (T/B)): 19.7 ± 2.99
- tissue to tissue ratio at 0.5 h (Tumor-to-Muscle ratio (T/M)): 11.8 ± 5.75
- tissue to tissue ratio at 1 h (Tumor-to-Muscle ratio (T/M)): 16.5 ± 2.99
- tissue to tissue ratio at 2 h (Tumor-to-Muscle ratio (T/M)): 33 ± 7.91
- tissue to tissue ratio at 0.5 h [2]: 7.72 ± 2.49
- tissue to tissue ratio at 1 h [2]: 8.04 ± 2.02
- tissue to tissue ratio at 2 h [2]: 26 ± 11.9
- tissue to tissue ratio at 0.5 h (Tumor-to-Spleen ratio (T/B)): 7.04 ± 3.92
- tissue to tissue ratio at 1 h (Tumor-to-Spleen ratio (T/B)): 12.6 ± 2
- tissue to tissue ratio at 2 h (Tumor-to-Spleen ratio (T/B)): 39.4 ± 7.6
- tissue to tissue ratio at 0.5 h (Tumor-to-Stomach ratio (T/B)): 4.5 ± 3.7
- tissue to tissue ratio at 1 h (Tumor-to-Stomach ratio (T/B)): 5.93 ± 0.89
- tissue to tissue ratio at 2 h (Tumor-to-Stomach ratio (T/B)): 10.5 ± 2.83
- tissue uptake at 0.5 h (Bladder uptake): 0.97 ± 0.52 %ID/g
- tissue uptake at 1 h (Bladder uptake): 1.59 ± 0.58 %ID/g
- tissue uptake at 2 h (Bladder uptake): 0.53 ± 0.15 %ID/g
- tissue uptake at 0.5 h (Blood uptake): 2.25 ± 1.2 %ID/g
- tissue uptake at 2 h (Blood uptake): 1.56 ± 0.97 %ID/g
- tissue uptake at 0.5 h (Bone uptake): 0.78 ± 0.48 %ID/g
- tissue uptake at 2 h (Bone uptake): 0.22 ± 0.18 %ID/g
- tissue uptake at 0.5 h (Brain uptake): 0.17 ± 0.07 %ID/g
- tissue uptake at 2 h (Brain uptake): 0.06 ± 0.04 %ID/g
- tissue uptake at 0.5 h (Heart uptake): 1.26 ± 0.44 %ID/g
- tissue uptake at 2 h (Heart uptake): 1.14 ± 0.39 %ID/g
- tissue uptake at 0.5 h (Kidney uptake): 5.24 ± 3.64 %ID/g
- tissue uptake at 1 h (Kidney uptake): 11.2 ± 1.84 %ID/g
- tissue uptake at 2 h (Kidney uptake): 12.7 ± 3.23 %ID/g
- tissue uptake at 0.5 h (Large intestine uptake): 1.38 ± 1.37 %ID/g
- tissue uptake at 2 h (Large intestine uptake): 0.67 ± 0.34 %ID/g
- tissue uptake at 0.5 h (Liver uptake): 3.45 ± 1.37 %ID/g
- tissue uptake at 1 h (Liver uptake): 4.24 ± 0.47 %ID/g
- tissue uptake at 2 h (Liver uptake): 2.01 ± 1.19 %ID/g
- tissue uptake at 0.5 h (Lung uptake): 2.01 ± 0.71 %ID/g
- tissue uptake at 2 h (Lung uptake): 1.02 ± 0.01 %ID/g
- tissue uptake at 0.5 h (Muscle uptake): 0.57 ± 0.24 %ID/g
- tissue uptake at 2 h (Muscle uptake): 0.62 ± 0.19 %ID/g
- tissue uptake at 0.5 h (Small intestine uptake): 1.48 ± 0.73 %ID/g
- tissue uptake at 2 h (Small intestine uptake): 0.86 ± 0.32 %ID/g
- tissue uptake at 0.5 h (Spleen uptake): 0.96 ± 0.4 %ID/g
- tissue uptake at 2 h (Spleen uptake): 0.52 ± 0.05 %ID/g
- tissue uptake at 0.5 h (Stomach uptake): 1.11 ± 0.59 %ID/g
- tissue uptake at 2 h (Stomach uptake): 1.97 ± 0.39 %ID/g
- tissue uptake at 0.5 h (Tumor uptake): 5.81 ± 1.83 %ID/g
- tissue uptake at 2 h (Tumor uptake): 20.2 ± 3.31 %ID/g
